Results published in ChEMBL document CHEMBL5543125, “Discovery of 2,3-Dihydro[1,4]dioxino[2,3-g]benzofuran Derivatives as Protease Activated Receptor 4 (PAR4) Antagonists with Potent Antiplatelet Aggregation Activity and Low Bleeding Tendency” (J Med Chem, 2024).
Active and inactive are the calls of the source. The rule behind the calls is not given here.

System: not listed separately
Assay: Toxicity in C57BL/6J mouse assessed as prolongation of bleeding time at 3 to 12 mg/kg, po administered via oral gavage and measured after 2 hrs
Format: organism-based
Settings: in vivo, dose 3-12 mg/kg

| Structure (SMILES) | Activity |
| --- | --- |
| COC(=O)[C@H](c1ccccc1Cl)N1CCc2sccc2C1 [CLOPIDOGREL] | Toxic |

System: Platelet
Assay: Inhibition of platelet aggregation in human platelet rich plasma at 20 uM preincubated for 5 mins followed by aggregation inducer addition and measured after 5 mins by light transmission aggregometry relative to control
Format: functional
Settings: 10 min

| Structure (SMILES) | inhibition at 20 µM [%] |
| --- | --- |
| COc1ccc2nc(-c3cc4ccc5c(c4o3)OCCO5)cn2n1 | 0 |
| COc1nn2cc(-c3cc4c(OCCN5CCS(=O)(=O)CC5)cc5c(c4o3)OCCO5)nc2s1 | -4.63 |
| COc1nn2cc(-c3cc4ccc5c(c4o3)C=CC(C)(C)O5)nc2s1 | 2.58 |
| COc1nn2cc(-c3cc4ccc5c(c4o3)OCO5)nc2s1 | 77.5 |
| CSc1nn2cc(-c3cc4ccccc4o3)nc2s1 | 81 |
| COc1nn2cc(-c3cc4c(OCC(=O)N5CCN(C(C)=O)CC5)cc5c(c4o3)OCCO5)nc2s1 | 15.1 |
| COc1nn2cc(-c3cc4c(OCc5csc(N6CCSCC6)n5)cc5c(c4o3)OCCO5)nc2s1 | 82.1 |
| COc1nn2cc(-c3cc4c(OCc5nc(N6CCOCC6)sc5C)cc5c(c4o3)OCCO5)nc2s1 | 85.2 |
| COc1nn2cc(-c3cc4ccc5c(c4o3)CCCO5)nc2s1 | 1.14 |
| COc1nn2cc(-c3cc4c(OCc5ccccc5)cc5c(c4o3)OCCO5)nc2s1 | 7.4 |
| COc1nn2cc(-c3cc4c(-c5ccc(C)cc5)cc5c(c4o3)OCCO5)nc2s1 | -0.13 |
| COc1nn2cc(-c3cc4ccc5c(c4o3)OCCCCO5)nc2s1 | 44.8 |
| COc1nn2cc(-c3cc4c(N5CCOCC5)cc5c(c4o3)OCCO5)nc2s1 | 37.1 |
| COc1nn2cc(-c3cc4c(F)cc5c(c4o3)OCCO5)nc2s1 | 74.8 |
| COc1nn2cc(-c3cc4c5c(ccc4o3)OCCO5)nc2s1 | 18.4 |
| COc1nn2cc(-c3cc4c(C(F)(F)F)cc5c(c4o3)OCCO5)nc2s1 | 5.75 |
| COc1nn2cc(-c3cc4c(Cl)cc5c(c4o3)OCCO5)nc2s1 | 43.2 |

| Structure (SMILES) | inhibition at 20 µM [%] |
| --- | --- |
| COCCCc1cc2c(c3oc(-c4cn5nc(OC)sc5n4)cc13)OCCO2 | 4.17 |
| COc1nn2cc(-c3cc4c(OCC(=O)N5CCC(F)(F)CC5)cc5c(c4o3)OCCO5)nc2s1 | 75.4 |
| FC(F)(F)c1nn2cc(-c3cc4ccc5c(c4o3)OCCO5)nc2s1 | 3.89 |
| Cc1ccc2nc(-c3cc4ccc5c(c4o3)OCCO5)cn2n1 | 85 |
| c1cnn2cc(-c3cc4ccc5c(c4o3)OCCO5)nc2n1 | 2.08 |
| COc1nn2cc(-c3cc4c(OCc5csc(-c6ccc(C(=O)N(C)C)cc6)n5)cc5c(c4o3)OCCO5)nc2s1 | 80.8 |
| COc1nn2cc(-c3cc4ccc5c(c4o3)CCCC5)nc2s1 | 8.02 |
| COc1nn2cc(-c3cc4ccc5c(c4o3)CCO5)nc2s1 | 83.7 |
| COc1nn2cc(-c3cc4ccc5c(c4o3)OCCCO5)nc2s1 | 76.8 |
| COc1nn2cc(-c3cc4c(Br)cc5c(c4o3)OCCO5)nc2s1 | 83.1 |
| COc1nn2cc(-c3cc4ccc5ccccc5c4o3)nc2s1 | 8.27 |
| [2H]c1cc2c(c3oc(-c4cn5nc(OC)sc5n4)cc13)OCCO2 | 79.9 |
| CSc1nn2cc(-c3cc4ccc5c(c4o3)OCCOCCO5)nc2s1 | -1.3 |
| COc1nn2cc(-c3cc4c(OCc5csc(-c6ccc(C(F)(F)F)cc6)n5)cc5c(c4o3)OCCO5)nc2s1 | 6.57 |
| COc1nn2cc(-c3cc4cc5c(cc4o3)OCCO5)nc2s1 | 88.4 |
| COc1nn2cc(-c3cc4c(C5CC5)cc5c(c4o3)OCCO5)nc2s1 | 75.6 |
| COc1nn2cc(-c3cc4c(OCCN5CCOCC5)cc5c(c4o3)OCCO5)nc2s1 | 78.9 |

Target: T1, Proteinase-activated receptor 4 (Homo sapiens) (UniProt Q96RI0)
T1 sequence (whole entry): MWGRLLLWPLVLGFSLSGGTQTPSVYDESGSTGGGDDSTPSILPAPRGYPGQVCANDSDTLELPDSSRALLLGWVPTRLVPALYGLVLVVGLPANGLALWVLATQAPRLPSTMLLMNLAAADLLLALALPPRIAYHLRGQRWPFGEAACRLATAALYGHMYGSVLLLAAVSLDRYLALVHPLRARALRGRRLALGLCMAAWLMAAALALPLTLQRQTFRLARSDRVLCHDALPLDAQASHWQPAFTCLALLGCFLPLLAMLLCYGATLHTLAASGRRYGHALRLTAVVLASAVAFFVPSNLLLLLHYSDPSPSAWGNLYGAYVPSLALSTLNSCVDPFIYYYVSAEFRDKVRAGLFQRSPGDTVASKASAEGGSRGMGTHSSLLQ
Assay: Antagonist activity at PAR4 in human filtered plasma assessed as inhibition of PAR4-activated peptide AYPGPK-NH2 induced platelet aggregation at 100 nM preincubated for 5 mins followed by aggregation inducer addition and measured after 5 mins by light transmission aggregometry relative to control
Format: functional, cell-free
Settings: filed as antagonist, time 10.0 min

| Structure (SMILES) | Activity |
| --- | --- |
| CCOC(=O)N[C@@H]1CC[C@@H]2[C@@H](C1)C[C@H]1C(=O)O[C@H](C)[C@H]1[C@H]2/C=C/c1ccc(-c2cccc(F)c2)cn1 | Active |

System: not listed separately
Assay: Metabolic stability in human liver microsomes assessed as half life at 1 uM preincubated for 1 hr followed by NADPH addition and measured upto 60 mins by LC-MS/MS analysis
Format: ADME, Microsome
Settings: time < 120 min

| Structure (SMILES) | half-life at 1 µM [min] |
| --- | --- |
| COc1nn2cc(-c3cc4ccc5c(c4o3)OCO5)nc2s1 | 16.2 |
| CSc1nn2cc(-c3cc4ccccc4o3)nc2s1 | 11.1 |
| COc1nn2cc(-c3cc4c(OCc5nc(N6CCOCC6)sc5C)cc5c(c4o3)OCCO5)nc2s1 | 14.8 |
| COc1nn2cc(-c3cc4c(F)cc5c(c4o3)OCCO5)nc2s1 | 34.3 |
| COc1nn2cc(-c3cc4c(OCC(=O)N5CCC(F)(F)CC5)cc5c(c4o3)OCCO5)nc2s1 | 16.1 |
| Cc1ccc2nc(-c3cc4ccc5c(c4o3)OCCO5)cn2n1 | 10.6 |
| COc1nn2cc(-c3cc4c(OCc5csc(-c6ccc(C(=O)N(C)C)cc6)n5)cc5c(c4o3)OCCO5)nc2s1 | 55.8 |
| COc1nn2cc(-c3cc4ccc5c(c4o3)OCCCO5)nc2s1 | 18.4 |
| COc1nn2cc(-c3cc4c(Br)cc5c(c4o3)OCCO5)nc2s1 | 59.7 |
| [2H]c1cc2c(c3oc(-c4cn5nc(OC)sc5n4)cc13)OCCO2 | 15 |
| COc1nn2cc(-c3cc4c(OCCN5CCOCC5)cc5c(c4o3)OCCO5)nc2s1 | 33 |

System: Platelet
Assay: Inhibition of platelet aggregation in human platelet rich plasma preincubated for 5 mins followed by aggregation inducer addition and measured after 5 mins by light transmission aggregometry
Format: functional, cell-based
Settings: not given

| Structure (SMILES) | IC50 [nM] |
| --- | --- |
| COc1nn2cc(-c3cc4ccc5c(c4o3)OCO5)nc2s1 | 18.8 |
| COc1nn2cc(-c3cc4c(OCc5csc(N6CCSCC6)n5)cc5c(c4o3)OCCO5)nc2s1 | 9.2 |
| COc1nn2cc(-c3cc4c(OCc5nc(N6CCOCC6)sc5C)cc5c(c4o3)OCCO5)nc2s1 | 9.2 |
| COc1nn2cc(-c3cc4c(F)cc5c(c4o3)OCCO5)nc2s1 | 9.1 |
| Cc1ccc2nc(-c3cc4ccc5c(c4o3)OCCO5)cn2n1 | 10.8 |
| COc1nn2cc(-c3cc4ccc5c(c4o3)CCO5)nc2s1 | 17.8 |
| COc1nn2cc(-c3cc4ccc5c(c4o3)OCCCO5)nc2s1 | 17.1 |
| COc1nn2cc(-c3cc4c(Br)cc5c(c4o3)OCCO5)nc2s1 | 18.4 |
| [2H]c1cc2c(c3oc(-c4cn5nc(OC)sc5n4)cc13)OCCO2 | 2.8 |
| COc1nn2cc(-c3cc4c(C5CC5)cc5c(c4o3)OCCO5)nc2s1 | 18.7 |

System: not listed separately
Assay: Oral bioavailability in Sprague-Dawley rat at 50 mg/kg
Format: ADME, organism-based
Settings: in vivo

| Structure (SMILES) | bioavailability [%] |
| --- | --- |
| COc1nn2cc(-c3cc4c(F)cc5c(c4o3)OCCO5)nc2s1 | 4.9 |
